Biological target: T1, human TRPM8 (Homo sapiens, UniProt Q7Z2W7)
T1 construct: expressed in transfected cells; host or cells: Chinese hamster ovary (CHO) cells, T-REx tetracycline-inducible expression system (Invitrogen); co-transfected with pcDNA3.1 aequorin
Assay: Luminescence readout assay for measuring intracellular calcium (aequorin, CHO cells expressing human TRPM8; icilin, L-menthol or cold activation)
Assay type: cell-based
Conditions: CHO cells expressing human TRPM8, icilin activation (1 μM), aequorin luminescence; read-out: hTRPM8 IC50
Summary of the method: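 Activation was by 1 μM icilin, 100 μM L-menthol (test compound 2.5 min ahead) or cold buffer below 10° C (compound 1 min ahead). Calcium rise measured as aequorin luminescence in CHO cells with tetracycline-inducible human TRPM8.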

T1 sequence (Q7Z2W7 whole entry): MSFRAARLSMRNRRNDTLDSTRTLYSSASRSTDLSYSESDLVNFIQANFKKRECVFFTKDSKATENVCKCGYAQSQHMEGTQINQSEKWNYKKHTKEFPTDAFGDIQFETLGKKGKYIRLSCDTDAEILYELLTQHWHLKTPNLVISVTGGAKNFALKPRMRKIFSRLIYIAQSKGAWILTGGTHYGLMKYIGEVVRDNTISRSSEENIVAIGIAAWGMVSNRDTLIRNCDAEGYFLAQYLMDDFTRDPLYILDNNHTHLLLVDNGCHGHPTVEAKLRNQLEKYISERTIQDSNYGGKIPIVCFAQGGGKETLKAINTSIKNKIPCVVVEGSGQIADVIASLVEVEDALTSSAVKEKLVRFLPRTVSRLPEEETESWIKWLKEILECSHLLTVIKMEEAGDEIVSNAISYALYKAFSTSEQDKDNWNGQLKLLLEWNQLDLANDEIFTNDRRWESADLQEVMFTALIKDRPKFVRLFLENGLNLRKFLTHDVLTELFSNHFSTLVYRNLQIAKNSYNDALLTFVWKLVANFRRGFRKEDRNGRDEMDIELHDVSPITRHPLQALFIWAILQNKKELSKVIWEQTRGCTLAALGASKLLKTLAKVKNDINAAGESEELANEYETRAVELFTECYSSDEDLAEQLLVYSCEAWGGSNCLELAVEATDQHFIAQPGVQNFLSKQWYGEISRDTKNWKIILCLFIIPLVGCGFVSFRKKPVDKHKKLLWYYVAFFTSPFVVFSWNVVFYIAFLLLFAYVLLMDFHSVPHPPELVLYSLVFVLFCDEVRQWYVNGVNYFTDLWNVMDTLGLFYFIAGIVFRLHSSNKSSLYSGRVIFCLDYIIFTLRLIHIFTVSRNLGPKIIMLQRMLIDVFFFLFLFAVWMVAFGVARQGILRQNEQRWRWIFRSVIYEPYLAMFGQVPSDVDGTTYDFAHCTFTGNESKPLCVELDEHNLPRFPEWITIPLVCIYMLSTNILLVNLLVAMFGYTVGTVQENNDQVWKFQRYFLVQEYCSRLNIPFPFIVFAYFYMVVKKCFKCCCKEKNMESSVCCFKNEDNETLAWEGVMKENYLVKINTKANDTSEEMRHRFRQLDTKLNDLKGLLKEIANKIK

IC50 [nM] | Structure (SMILES)
6 | Nc1ccc(C(=O)N[C@]2(c3ccc(OC(F)(F)F)c(F)c3)CCOc3cccnc32)nc1 [Example 284, (S)-5-amino-N-(4-(3-fluoro-4-(trifluoromethoxy)phenyl)-3,4-dihydro-2H-pyrano[3,2-b]pyridin-4-yl)picolinamide]
179 | COC(=O)c1cccc(S(=O)(=O)N[C@]2(c3ccc(OC(F)(F)F)c(F)c3)CCOc3cccnc32)c1 [Example 285, (S)-methyl 3-(N-(4-(3-fluoro-4-(trifluoromethoxy)phenyl)-3,4-dihydro-2H-pyrano[3,2-b]pyridin-4-yl)sulfamoyl)benzoate]
754 | COC(=O)c1ccc(S(=O)(=O)N[C@]2(c3ccc(OC(F)(F)F)c(F)c3)CCOc3cccnc32)cc1 [Example 286, (S)-methyl 4-(N-(4-(3-fluoro-4-(trifluoromethoxy)phenyl)-3,4-dihydro-2H-pyrano[3,2-b]pyridin-4-yl)sulfamoyl)benzoate]
17 | Cc1cc(C(=O)N[C@]2(c3ccc(C(F)(F)F)c(F)c3)CCOc3cccnc32)ccc1C(=O)O [Example 287, (S)-4-((4-(3-fluoro-4-(trifluoromethyl)phenyl)-3,4-dihydro-2H-pyrano[3,2-b]pyridin-4-yl)carbamoyl)-2-methylbenzoic acid]
45 | Cc1cc(C(=O)N[C@]2(c3ccc(C(F)(F)F)cc3)CCOc3cccnc32)ccc1C(=O)O [Example 288, (S)-2-methyl-4-((4-(4-(trifluoromethyl)phenyl)-3,4-dihydro-2H-pyrano[3,2-b]pyridin-4-yl)carbamoyl)benzoic acid]
86 | O=C(N[C@]1(c2ccc(OC(F)(F)F)c(F)c2)CCOc2cccnc21)c1ccc(C(=O)O)c(-c2ccccc2)c1 [Example 290, (S)-5-((4-(3-fluoro-4-(trifluoromethoxy)phenyl)-3,4-dihydro-2H-pyrano[3,2-b]pyridin-4-yl)carbamoyl)-[1,1′-biphenyl]-2-carboxylic acid]
14 | CC(C)c1cc(C(=O)N[C@]2(c3ccc(OC(F)(F)F)c(F)c3)CCOc3cccnc32)ccc1C(=O)O [Example 292, (S)-4-((4-(3-fluoro-4-(trifluoromethoxy)phenyl)-3,4-dihydro-2H-pyrano[3,2-b]pyridin-4-yl)carbamoyl)-2-isopropylbenzoic acid]
7 | CC(C)Cc1cc(C(=O)N[C@]2(c3ccc(OC(F)(F)F)c(F)c3)CCOc3cccnc32)ccc1C(=O)O [Example 293, (S)-4-((4-(3-fluoro-4-(trifluoromethoxy)phenyl)-3,4-dihydro-2H-pyrano[3,2-b]pyridin-4-yl)carbamoyl)-2-isobutylbenzoic acid]
3 | CNc1cc(C(=O)N[C@]2(c3ccc(OC(F)(F)F)c(F)c3)CCOc3cccnc32)ccc1C(=O)O [Example 294, (S)-4-((4-(3-fluoro-4-(trifluoromethoxy)phenyl)-3,4-dihydro-2H-pyrano[3,2-b]pyridin-4-yl)carbamoyl)-2-(methylamino)benzoic acid]
15 | COC(=O)c1ccc(C(=O)N[C@]2(c3ccc(OC(F)(F)F)c(F)c3)CCOc3cccnc32)cc1NC(C)=O [Example 295, (S)-methyl 2-acetamido-4-((4-(3-fluoro-4-(trifluoromethoxy)phenyl)-3,4-dihydro-2H-pyrano[3,2-b]pyridin-4-yl)carbamoyl)benzoate]
8 | CNC(=O)c1ccc(C(=O)N[C@]2(c3ccc(OC(F)(F)F)c(F)c3)CCOc3cccnc32)cc1C [Example 296, (S)—N4-(4-(3-fluoro-4-(trifluoromethoxy)phenyl)-3,4-dihydro-2H-pyrano[3,2-b]pyridin-4-yl)-N1,2-dimethylterephthalamide]
26 | Cc1cc(C(=O)N[C@]2(c3ccc(OC(F)(F)F)c(F)c3)CCOc3cccnc32)ccc1C(=O)NC(C)(C)C [Example 297, (S)—N1-(tert-butyl)-N4-(4-(3-fluoro-4-(trifluoromethoxy)phenyl)-3,4-dihydro-2H-pyrano[3,2-b]pyridin-4-yl)-2-methylterephthalamide]
23 | O=C(N[C@]1(c2ccc(OC(F)(F)F)c(F)c2)CCOc2cccnc21)c1ccc(C(=O)O)c(O)c1 [Example 298, (S)-4-((4-(3-fluoro-4-(trifluoromethoxy)phenyl)-3,4-dihydro-2H-pyrano[3,2-b]pyridin-4-yl)carbamoyl)-2-hydroxybenzoic acid]
115 | Cn1cc(C(=O)N[C@]2(c3ccc(OC(F)(F)F)c(F)c3)CCOc3cccnc32)cc1C(=O)O [Example 299, (S)-4-((4-(3-fluoro-4-(trifluoromethoxy)phenyl)-3,4-dihydro-2H-pyrano[3,2-b]pyridin-4-yl)carbamoyl)-1-methyl-1H-pyrrole-2-carboxylic acid]
12 | O=C(N[C@]1(c2ccc(OC(F)(F)F)c(F)c2)CCOc2cccnc21)c1ccc(C(=O)O)c(C2CC2)c1 [Example 300, (S)-2-cyclopropyl-4-((4-(3-fluoro-4-(trifluoromethoxy)phenyl)-3,4-dihydro-2H-pyrano[3,2-b]pyridin-4-yl)carbamoyl)benzoic acid]
266 | Cc1[nH]c(C(=O)N[C@]2(c3ccc(OC(F)(F)F)c(F)c3)CCOc3cccnc32)cc1C(=O)O [Example 301]
4 | O=C(N[C@]1(c2ccc(OC(F)(F)F)c(F)c2)CCOc2cccnc21)c1ccc(C(=O)O)c(NC2CC2)c1 [Example 302, (S)-2-(cyclopropylamino)-4-((4-(3-fluoro-4-(trifluoromethoxy)phenyl)-3,4-dihydro-2H-pyrano[3,2-b]pyridin-4-yl)carbamoyl)benzoic acid]
28 | Cc1c(C(=O)O)cc(C(=O)N[C@]2(c3ccc(OC(F)(F)F)c(F)c3)CCOc3cccnc32)n1C [Example 303]
28 | CNc1cc(C(=O)N[C@]2(c3ccc(OC(F)(F)F)c(F)c3)CCOc3cccnc32)cc(F)c1C(=O)O [Example 304, (S)-2-fluoro-4-((4-(3-fluoro-4-(trifluoromethoxy)phenyl)-3,4-dihydro-2H-pyrano[3,2-b]pyridin-4-yl)carbamoyl)-6-(methylamino)benzoic acid]
15 | COC(=O)c1ccc(C(=O)N[C@]2(c3ccc(OC(F)(F)F)c(F)c3)CCOc3cccnc32)n1C [Example 305, (S)-methyl 5-((4-(3-fluoro-4-(trifluoromethoxy)phenyl)-3,4-dihydro-2H-pyrano[3,2-b]pyridin-4-yl)carbamoyl)-1-methyl-1H-pyrrole-2-carboxylate]
159 | O=C(O)c1ccc(C(=O)N[C@]2(c3ccc(OC(F)(F)F)c(F)c3)CCOc3cccnc32)[nH]1 [Example 306, (S)-5-((4-(3-fluoro-4-(trifluoromethoxy)phenyl)-3,4-dihydro-2H-pyrano[3,2-b]pyridin-4-yl)carbamoyl)-1H-pyrrole-2-carboxylic acid]
631 | O=C(NS(=O)(=O)c1ccccc1)c1ccc(C(=O)N[C@]2(c3ccc(OC(F)(F)F)c(F)c3)CCOc3cccnc32)nc1 [Example 307, (S)—N2-(4-(3-fluoro-4-(trifluoromethoxy)phenyl)-3,4-dihydro-2H-pyrano[3,2-b]pyridin-4-yl)-N5-(phenylsulfonyl)pyridine-2,5-dicarboxamide 2,2,2-trifluoroacetate]
11 | O=C(N[C@]1(c2ccc(OC(F)(F)F)c(F)c2)CCOc2cccnc21)c1ccco1 [Example 308, (S)—N-(4-(3-fluoro-4-(trifluoromethoxy)phenyl)-3,4-dihydro-2H-pyrano[3,2-b]pyridin-4-yl)furan-2-carboxamide]
55 | CNC(=O)c1cccc(C(=O)N[C@]2(c3ccc(OC(F)(F)F)c(F)c3)CCOc3cccnc32)c1 [Example 309, (S)—N1-(4-(3-fluoro-4-(trifluoromethoxy)phenyl)-3,4-dihydro-2H-pyrano[3,2-b]pyridin-4-yl)-N3-methylisophthalamide]
155 | Cc1cc(C(=O)N[C@]2(c3ccc(OC(F)(F)F)c(F)c3)CCOc3cccnc32)cc(C)c1C(=O)O [Example 311, (S)-4-((4-(3-fluoro-4-(trifluoro-methoxy)phenyl)-3,4-dihydro-2H-pyrano[3,2-b]pyridin-4-yl)carbamoyl)-2,6-dimethylbenzoic acid]
104 | O=C(O)c1ccc(C(=O)N[C@]2(c3ccc(OC(F)(F)F)cc3F)CCOc3cccnc32)nc1 [Example 312, (S)-6-((4-(2-fluoro-4-(trifluoro-methoxy)phenyl)-3,4-dihydro-2H-pyrano[3,2-b]pyridin-4-yl)carbamoyl) nicotinic acid]
834 | COc1ccc(C(=O)N[C@]2(c3ccc(OC(F)(F)F)c(F)c3)CCOc3cccnc32)cc1C(=O)O [Example 315, (S)-5-((4-(3-fluoro-4-(trifluoromethoxy)phenyl)-3,4-dihydro-2H-pyrano[3,2-b]pyridin-4-yl)carbamoyl)-2-methoxybenzoic acid]
89 | COc1ccc(C(=O)O)cc1C(=O)N[C@]1(c2ccc(OC(F)(F)F)c(F)c2)CCOc2cccnc21 [Example 316, (S)-3-((4-(3-fluoro-4-(trifluoro-methoxy)phenyl)-3,4-dihydro-2H-pyrano[3,2-b]pyridin-4-yl)carbamoyl)-4-methoxybenzoic acid]
3340 | O=C(O)c1ccc(S(=O)(=O)N[C@]2(c3ccc(OC(F)(F)F)c(F)c3)CCOc3cccnc32)cc1 [Example 317, (S)-4-(N-(4-(3-fluoro-4-(trifluoro-methoxy)phenyl)-3,4-dihydro-2H-pyrano[3,2-b]pyridin-4-yl)sulfamoyl) benzoic acid]
3700 | O=C(N[C@]1(c2ccc(OC(F)(F)F)c(F)c2)CCOc2cccnc21)c1c[nH]c(C(=O)O)c1 [Example 320, (S)-4-((4-(3-fluoro-4-(trifluoro-methoxy)phenyl)-3,4-dihydro-2H-pyrano[3,2-b]pyridin-4-yl)carbamoyl)-1H-pyrrole-2-carboxylic acid]
